The values below come from patent publication US20240239752A1, “BICYCLIC HETEROAROMATIC INHIBITORS OF KLK5” (BioCryst Pharmaceuticals, Inc., priority 2021, published 2024).

The experiment addresses T1, recombinant human KLK5 (Homo sapiens, UniProt Q9Y337).
T1 construct: purchased Novoprotein or R&D Systems C415 or 1108-SE
T1 sequence (Q9Y337 23-293): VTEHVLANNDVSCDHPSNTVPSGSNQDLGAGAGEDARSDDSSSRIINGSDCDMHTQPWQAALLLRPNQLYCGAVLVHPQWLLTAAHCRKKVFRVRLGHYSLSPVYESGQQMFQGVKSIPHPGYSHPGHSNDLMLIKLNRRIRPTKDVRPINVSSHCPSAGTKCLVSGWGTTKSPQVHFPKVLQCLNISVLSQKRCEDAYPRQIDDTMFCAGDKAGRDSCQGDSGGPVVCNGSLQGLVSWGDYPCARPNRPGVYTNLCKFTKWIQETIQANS
Kind of experiment: Kallikrein (KLK) 5 enzymatic assay (Boc-VPR-AMC fluorogenic substrate). The experiment is classed as biochemical. The settings on record: recombinant human KLK5 0.1 μg/well, Boc-VPR-AMC 100 μM, pH 7.5, room temperature, 1% DMSO; tested a minimum of three times. A digest of the protocol: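 Fluorogenic rate assay at pH 7.5 (0.1 M NaH2PO4, 1% DMSO, room temperature), run at least three times per compound. Compound was premixed with 0.1 μg/well recombinant human KLK5 before adding 100 μM Boc-VPR-AMC; AMC release was read at ex 380/em 460 nm, and IC50 derived from inhibition of rate vs DMSO control.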
`Cc1ccc2c(N)nccc2c1-c1ccc2c(c1)c(COc1ccccc1CC(=O)O)nn2C(C)C` [Compound 78d, 2-(2-((5-(1-amino-6-methylisoquinolin-5-yl)-1-isopropyl-1H-indazol-3-yl)methoxy)phenyl)acetic acid]: the IC50 lay in the range of 1000 to 10000 nM.

In the case of `CC(C)n1nc(COc2ccccc2CC(=O)O)c2cc(-c3ccc4c(c3)[C@H](N)CO4)ccc21` [Compound 79c, (S)-2-(2-((5-(3-amino-2,3-dihydrobenzofuran-5-yl)-1-isopropyl-1H-indazol-3-yl)methoxy)phenyl)acetic acid], the IC50 is over 10000 nM.

With `CC(C)n1nc(COc2ccccc2CC(=O)O)c2cc(-c3ccnc4c(N)nccc34)ccc21` [Compound 80d, 2-(2-((5-(8-amino-1,7-naphthyridin-4-yl)-1-isopropyl-1H-indazol-3-yl)methoxy)phenyl)acetic acid], the IC50 lay within 1000 to 10000 nM.

As to `COc1c(-c2ccc3c(c2)c(COc2ccccc2CC(=O)O)nn3C(C)C)ccnc1C(=N)N` [Compound 81d, 2-(2-((5-(2-carbamimidoyl-3-methoxypyridin-4-yl)-1-isopropyl-1H-indazol-3-yl)methoxy)phenyl)acetic acid], the IC50 was under 1000 nM.

`COc1cc(C(=N)N)cc(-c2ccc3c(c2)c(COc2ccccc2CC(=O)O)nn3C(C)C)c1` [Compound 82e, 2-(2-((5-(3-carbamimidoyl-5-methoxyphenyl)-1-isopropyl-1H-indazol-3-yl)methoxy)phenyl)acetic acid]: the IC50 is over 10000 nM.

Take `COc1ccc(C(=N)N)cc1-c1ccc2c(c1)c(COc1ccccc1CC(=O)O)nn2C(C)C` [Compound 83e, 2-(2-((5-(5-carbamimidoyl-2-methoxyphenyl)-1-isopropyl-1H-indazol-3-yl)methoxy)phenyl)acetic acid]: the 50% inhibitory concentration (IC50) lay within 1000 to 10000 nM.

Consider `COc1c(C(=N)N)cccc1-c1ccc2c(c1)c(COc1ccccc1CC(=O)O)nn2C(C)C` [Compound 84f, 2-(2-((5-(3-carbamimidoyl-2-methoxyphenyl)-1-isopropyl-1H-indazol-3-yl)methoxy)phenyl)acetic acid], for which the half-maximal inhibitory concentration (IC50) was under 1000 nM.

For the compound `CC(C)n1nc(COc2ccccc2CC(=O)O)c2cc(-c3cccc(-c4cn[nH]c4)c3)ccc21` [Compound 85c, 2-(2-((5-(3-(1H-pyrazol-4-yl)phenyl)-1-isopropyl-1H-indazol-3-yl)methoxy)phenyl)acetic acid], the half-maximal inhibitory concentration (IC50) was over 10000 nM.

Regarding `CC(C)(C)OC(=O)N1CCC(n2nc(COc3ccccc3CC(=O)O)c3cc(-c4cccc5c(N)nccc45)ccc32)C1` (stereo not drawn) [Compound 86h, 2-(2-((5-(1-aminoisoquinolin-5-yl)-1-(1-(tert-butoxycarbonyl)pyrrolidin-3-yl)-1H-indazol-3-yl)methoxy)phenyl)acetic acid], the IC50 is under 1000 nM.

For `CC(C)(C)OC(=O)N1CCC(n2nc(COc3ccccc3CC(=O)O)c3cc(-c4ccc5ccnc(N)c5c4)ccc32)C1` (stereo not drawn) [Compound 87c, 2-(2-((5-(1-aminoisoquinolin-7-yl)-1-(1-(tert-butoxycarbonyl)pyrrolidin-3-yl)-1H-indazol-3-yl)methoxy)phenyl)acetic acid], the IC50 was under 1000 nM.

On to `Nc1nccc2c(-c3ccc4c(c3)c(COc3ccccc3CC(=O)O)nn4CC3CCOC3)cccc12` (stereo not drawn) [Compound 88h, 2-(2-((5-(1-aminoisoquinolin-5-yl)-1-((tetrahydrofuran-3-yl)methyl)-1H-indazol-3-yl)methoxy)phenyl)acetic acid], for which the half-inhibitory concentration (IC50) is under 1000 nM.

In the case of `Nc1nccc2ccc(-c3ccc4c(c3)c(COc3ccccc3CC(=O)O)nn4CC3CCOC3)cc12` (stereo not drawn) [Compound 89b, 2-(2-((5-(1-aminoisoquinolin-7-yl)-1-((tetrahydrofuran-3-yl)methyl)-1H-indazol-3-yl)methoxy)phenyl)acetic acid], the IC50 is under 1000 nM.

Regarding `Nc1nccc2c(-c3ccc4c(c3)c(COc3ccccc3CC(=O)O)nn4C3CCNC3)cccc12` (stereo not drawn) [Compound 90a, 2-(2-((5-(1-aminoisoquinolin-5-yl)-1-(pyrrolidin-3-yl)-1H-indazol-3-yl)methoxy)phenyl)acetic acid], the IC50 is under 1000 nM.

For the compound `Nc1nccc2ccc(-c3ccc4c(c3)c(COc3ccccc3CC(=O)O)nn4C3CCNC3)cc12` (stereo not drawn) [Compound 91a, 2-(2-((5-(1-aminoisoquinolin-7-yl)-1-(pyrrolidin-3-yl)-1H-indazol-3-yl)methoxy)phenyl)acetic acid], the IC50 was under 1000 nM.

Regarding `Nc1nccc2c(-c3ccc4c(c3)c(COc3ccccc3CC(=O)O)nn4C3CCCCO3)cccc12` (stereo not drawn) [Compound 92b, 2-(2-((5-(1-aminoisoquinolin-5-yl)-1-(tetrahydro-2H-pyran-2-yl)-1H-indazol-3-yl)methoxy)phenyl)acetic acid], the concentration for half-maximal inhibition (IC50) is under 1000 nM.

For `Nc1nccc2ccc(-c3ccc4c(c3)c(COc3ccccc3CC(=O)O)nn4C3CCCCO3)cc12` (stereo not drawn) [Compound 93b, 2-(2-((5-(1-aminoisoquinolin-7-yl)-1-(tetrahydro-2H-pyran-2-yl)-1H-indazol-3-yl)methoxy)phenyl)acetic acid], the IC50 is under 1000 nM.

Consider `Cc1cccc(OCc2nn(CC3CCOC3)c3ccc(-c4cccc5c(N)nccc45)cc23)c1CC(=O)O` (stereo not drawn) [Compound 94e, 2-(2-((5-(1-aminoisoquinolin-5-yl)-1-((tetrahydrofuran-3-yl)methyl)-1H-indazol-3-yl)methoxy)-6-methylphenyl)acetic acid], for which the IC50 is under 1000 nM.

Turning to `Cc1cccc(OCc2nn(CC3CCOC3)c3ccc(-c4ccc5ccnc(N)c5c4)cc23)c1CC(=O)O` (stereo not drawn) [Compound 95b, 2-(2-((5-(1-aminoisoquinolin-7-yl)-1-((tetrahydrofuran-3-yl)methyl)-1H-indazol-3-yl)methoxy)-6-methylphenyl)acetic acid], the IC50 was under 1000 nM.

For `N=C(N)c1cccc(-c2ccc3c(c2)c(COc2ccccc2CC(=O)O)nn3C2CCOC2)c1` (stereo not drawn) [Compound 96g, 2-(2-((5-(3-carbamimidoylphenyl)-1-(tetrahydrofuran-3-yl)-1H-indazol-3-yl)methoxy)phenyl)acetic acid], the IC50 was under 1000 nM.

Take `Nc1nccc2c(-c3ccc4[nH]nc(COc5ccccc5CC(=O)O)c4c3)cccc12` [Compound 97a, 2-(2-((5-(1-aminoisoquinolin-5-yl)-1H-indazol-3-yl)methoxy)phenyl)acetic acid]: the concentration for half-maximal inhibition (IC50) was under 1000 nM.

`Nc1nccc2ccc(-c3ccc4[nH]nc(COc5ccccc5CC(=O)O)c4c3)cc12` [Compound 98a, 2-(2-((5-(1-aminoisoquinolin-7-yl)-1H-indazol-3-yl)methoxy)phenyl)acetic acid]: the IC50 was under 1000 nM.

As for `CC(C)n1nc(COc2ccccc2CC(=O)O)c2cc(-c3ccc4c(N)nccc4c3)ccc21` [Compound 99c, 2-(2-((5-(1-aminoisoquinolin-6-yl)-1-isopropyl-1H-indazol-3-yl)methoxy)phenyl)acetic acid], the half-inhibitory concentration (IC50) was 1000 to 10000 nM.

Take `CC(C)n1nc(COc2ccccc2CC(=O)O)c2cc(-c3ccc4ccnc(N)c4c3)ccc21` [Compound 100b, 2-(2-((5-(1-aminoisoquinolin-7-yl)-1-isopropyl-1H-indazol-3-yl)methoxy)phenyl)acetic acid]: the IC50 is under 1000 nM.

In the case of `COc1ccc(CC(=O)O)c(OCc2nn(C)c3ccc(-c4cccc(C(=N)N)c4)cc23)c1` [Compound 101b, 2-(2-((5-(3-carbamimidoylphenyl)-1-methyl-1H-indazol-3-yl)methoxy)-4-methoxyphenyl)acetic acid], the IC50 is under 1000 nM.

On to `CC(C)n1nc(COc2ccccc2CC(=O)O)c2cc(-c3ccc4onc(N)c4c3)ccc21` [Compound 102c, 2-(2-((5-(3-aminobenzo[d]isoxazol-5-yl)-1-isopropyl-1H-indazol-3-yl)methoxy)phenyl)acetic acid], for which the 50% inhibitory concentration (IC50) lay within 1000 to 10000 nM.

`Cc1ccc(CC(=O)O)c(OCc2nn(C(C)C)c3ccc(-c4cccc(C(=N)N)c4)cc23)c1` [Compound 103c, 2-(2-((5-(3-carbamimidoylphenyl)-1-isopropyl-1H-indazol-3-yl)methoxy)-4-methylphenyl)acetic acid]: the IC50 is under 1000 nM.

Take `Cc1ccc(CC(=O)O)c(OCc2nn(C)c3ccc(-c4cccc(C(=N)N)c4)cc23)c1` [Compound 104d, 2-(2-((5-(3-carbamimidoylphenyl)-1-methyl-1H-indazol-3-yl)methoxy)-4-methylphenyl)acetic acid]: the IC50 was under 1000 nM.

Take `CC(C)n1nc(COc2ccccc2CC(=O)O)c2cc(-c3ccc4nc(N)oc4c3)ccc21` [Compound 105c, 2-(2-((5-(2-aminobenzo[d]oxazol-6-yl)-1-isopropyl-1H-indazol-3-yl)methoxy)phenyl)acetic acid]: the concentration for half-maximal inhibition (IC50) was over 10000 nM.

On to `Nc1nccc2c(-c3cc(-c4ccoc4)c4c(c3)c(COc3ccccc3CC(=O)O)nn4C3CCCCO3)cccc12` (stereo not drawn) [Compound 106g, 2-(2-((5-(1-aminoisoquinolin-5-yl)-7-(furan-3-yl)-1-(tetrahydro-2H-pyran-2-yl)-1H-indazol-3-yl)methoxy)phenyl)acetic acid], for which the IC50 is under 1000 nM.

`Nc1nccc2c(-c3cc(NCC4CC4)c4c(c3)c(COc3ccccc3CC(=O)O)nn4C3CCCCO3)cccc12` (stereo not drawn) [Compound 107d, 2-(2-((5-(1-aminoisoquinolin-5-yl)-7-((cyclopropylmethyl)amino)-1-(tetrahydro-2H-pyran-2-yl)-1H-indazol-3-yl)methoxy)phenyl)acetic acid]: the half-inhibitory concentration (IC50) is under 1000 nM.
